Molecules are shown by their SMILES.

Regarding `[C-]#[N+]CSc1c(OC)cccc1OC` [Example 16, (2,6-dimethoxyphenyl)(isocyanomethyl)sulfane], the melting point is 47 to 48 °C.
The figure for `[C-]#[N+]CSc1c(OC)cccc1C(F)(F)F` [Example 17, 2-((Isocyanomethyl)sulfanyl)-1-methoxy-3-(trifluoromethyl)benzene] is 54 to 55 °C.

Usually melting point stands for the temperature, or range, at which the solid turns liquid.

The values above are taken from patent US20150239835A1, “COMPOSITION, SYNTHESIS, AND USE OF A NEW CLASS OF ISONITRILES” (DUQUESNE UNIVERSITY OF THE HOLY GHOST, priority 2014, published 2015).
